Data set [1] addresses T1, GHSR-1a (HEK293/GHSR1a cell line) (Homo sapiens, UniProt Q92847).
T1 construct: expressed in transfected cells; host or cells: HEK293/GHSR1a cell line
Kind of data set: Ghrelin agonist potency (EC50) with calcium FLIPR assay. The format is cell-based. The method in brief: (§1)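 Dye preload 30-60 min, RT or 37° C; compound in DMSO. Agonist mode: compound at t=20 sec, Ca2+ read 2 min. Antagonist mode: compound + ghrelin 10 nM at t=20 sec, 2 min read. EC50/IC50 from dose-response curves.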

The target in data set [2] is T1, GHSR-1a (HEK293/GHSR1a cell line). Kind of data set: Ghrelin antagonist potency (IC50) with calcium FLIPR assay, ghrelin 10 nM. Format: cell-based. The method in brief: as §1
Data set [3] concerns the target T2, recombinant human ghrelin receptor (HEK293/GRLN) (Homo sapiens, UniProt Q92847).
T2 construct: expressed in transfected cells
As to the kind of experiment: Ghrelin inverse agonist potency (EC50) with IP-1 (IP-One HTRF) assay. Format: cell-based. Particulars: IP-1 assay. The method in brief:
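HEK293/GRLN cells were seeded 18-22 hours before the test, then exposed to compound in stimulation buffer for 1 hour at 37° C, 5% CO2. IP-1 was detected by IP-One HTRF (IP1-d2 plus Tb-cryptate, 1 hour RT), reading 620 and 665 nm; the inverse agonist EC50 was derived from this.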

The nature of data set [4]: Metabolic stability in mouse liver microsomes. The format is in vitro ADME. On the procedure:
(§2) Metabolic Stability Study
(§3) The metabolic stability of compounds in human, dog, rat and mouse liver microsomes was performed according the experimental conditions reported below:
(§4) • a) Prepare the following 5 stock solutions: • 1. Test compound stock solutions: dilute 10 mM solution of dextromethorphan (Dtr) in DMSO, 10 mM solution of diphenhydramine (DPA) in DMSO, 10 mM solution of omeprazole (Ome) in DMSO, 10 mM solution of verapamil (Ver) in DMSO, and 10 mM of an inverse agonist compound in DMSO to 0.25 mM solution each with acetonitrile/water (70/30). • 2. Buffer: 100 mM potassium phosphate Buffer (PBS) at pH 7.4 • 3. Liver microsomes (20 mg/ml): Thaw in 37° C. water bath quickly • 4. 2000 μL: of NADPH regenerating system (1.3 mM). Place this system on ice before use:
(§5) • 5. […] The test compound concentration in the wells, measured by LC-MS/MS, represents the concentration at time=0. • f) To determine the test compound concentration when t≠0, pre-incubate the NADPH regenerating system and the incubation plate containing the remaining 320 μL of incubation mixture (microsomes protein and test compound) for 5 minutes at 37° C. • g) Start the incubation reaction by adding 80 μL NADPH regenerating system to each well containing the remaining 320 μL incubation mixture. • h) After 10 min., 30 min., and 90 min. of incubation at 37° C., transfer 100 μL of the incubation mixture (microsomes protein, test compound, and NADPH) into the wells of a stop plate pre-filled with 300 μL of the cold quench solution. Shake well. • i) Centrifuge the stop plate at 5000×g for 10 minutes. Collect and dilute the supernatant 3 times with distilled water. Sample and analyze the test compound concentration for all the wells by LC-MS/MS. Animal PK Studies via i.v. (intravenous), p.o. (orally) and s.c. (subcutaneous) administrations

Data set [5] in a line: Metabolic stability in human liver microsomes. The format is in vitro ADME. On the procedure: as §2, §3, §4, §5
Setting [6] is: HEK293/GHSR1a, read-out: Activity EC50/EMax: EC50 (ghrelin agonist potency).
Setting [7] is: HEK293/GHSR1a, ghrelin 10 nM, read-out: Activity IC50 (ghrelin antagonist potency).
Where [8] appears, read: HEK293/GRLN, read-out: Activity EC50 (ghrelin inverse agonist potency).
The mark [9] stands for this setting: ghrelin antagonist potency, read-out: IC50 (Activity).
Setting [10] is: inverse agonist potency, read-out: EC50 (Activity).

Molecules are shown by their SMILES. Read-outs that look alike come from different tables or passages of the source.

T1 sequence (Q92847 whole entry): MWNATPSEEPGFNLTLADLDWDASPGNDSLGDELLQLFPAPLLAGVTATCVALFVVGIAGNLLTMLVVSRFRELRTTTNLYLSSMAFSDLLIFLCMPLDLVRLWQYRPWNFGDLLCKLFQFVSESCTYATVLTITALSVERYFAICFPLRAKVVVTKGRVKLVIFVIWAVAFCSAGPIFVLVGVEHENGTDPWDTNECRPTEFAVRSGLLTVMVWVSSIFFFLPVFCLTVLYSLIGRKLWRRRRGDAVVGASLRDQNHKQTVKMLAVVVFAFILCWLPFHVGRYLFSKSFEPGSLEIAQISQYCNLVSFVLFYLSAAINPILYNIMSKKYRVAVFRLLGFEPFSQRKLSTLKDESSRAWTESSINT
T2 sequence (Q92847 whole entry): as above

On to `COc1cccc(F)c1C(C)NC(=O)Nc1ccc(S(=O)(=O)Cc2ccc3c(c2)CN(C)C3)cc1` (centres unmarked) [H1454, 1-(1-(2-fluoro-6-methoxyphenyl)ethyl)-3-(4-(((2-methylisoindolin-5-yl)methyl)sulfonyl)phenyl)urea], for which the EC50 in data set [1] (setting [6]) is greater than 30 µM; in data set [3] (setting [8]), 0.0061 µM. Besides, in data set [2] (setting [7]), the concentration for half-maximal inhibition (IC50) is 0.0318 µM. In data set [4], the “Metabolic Stability Study M = mouse” value is 193.3 µL/min/mg. For the same molecule, the “Metabolic Stability Study H = human” value in data set [5] was determined as 259.9 µL/min/mg.

Take `COc1cc(S(=O)(=O)Cc2ccc3c(c2)CCNC3)ccc1NC(=O)NC(C)c1ccccc1` (centres unmarked) [H1386, 1-(2-methoxy-4-(((1,2,3,4-tetrahydroisoquinolin-6-yl)methyl)sulfonyl)phenyl)-3-(1-phenylethyl)urea]: the EC50 in data set [1] (setting [6]) was greater than 30 µM; in data set [3] (setting [8]), 0.0117 µM. Also, in data set [2] (setting [7]), the IC50 amounted to 0.0212 µM. The “Metabolic Stability Study M = mouse” value in data set [4] was 11 µL/min/mg. Also, the “Metabolic Stability Study H = human” value in data set [5] was less than 10 µL/min/mg.

Consider `C[C@@H](NC(=O)Nc1ccc(S(=O)(=O)Cc2cc(F)c3c(c2)CNC3)cc1)c1ccccc1.Cl` [H1394, (R)-1-(4-(((7-fluoroisoindolin-5-yl)methyl)sulfonyl)phenyl)-3-(1-phenylethyl)urea], for which the EC50 in data set [1] (setting [6]) is greater than 30 µM; in data set [3] (setting [8]), 0.0078 µM. The IC50 in data set [2] (setting [7]) came to 0.0519 µM. Further, the “Metabolic Stability Study M = mouse” value in data set [4] is 182.5 µL/min/mg. For the same molecule, the “Metabolic Stability Study H = human” value in data set [5] turned out to be 67.4 µL/min/mg.

`CC1c2ccccc2CCN1C(=O)Nc1ccc(S(=O)(=O)Cc2ccc3c(c2)CNC3)cc1` (centres unmarked) [H1397, N-(4-((isoindolin-5-ylmethyl)sulfonyl)phenyl)-1-methyl-3,4-dihydroisoquinoline-2(1H)-carboxamide]: the EC50 was greater than 30 µM in data set [1] (setting [6]) and 0.0678 µM in data set [3] (setting [8]). Moreover, the IC50 in data set [2] (setting [7]) came out at 1.1 µM. Moreover, in data set [4], the “Metabolic Stability Study M = mouse” value was found to be 32 µL/min/mg. Further, the “Metabolic Stability Study H = human” value in data set [5] is 35.1 µL/min/mg.

As for `CC(NC(=O)Nc1ccc(S(=O)(=O)Cc2ccc3c(c2)CN(C)C3)cc1)c1cccc(Cl)c1` (centres unmarked) [H1266, 1-(1-(3-chlorophenyl)ethyl)-3-(4-(((2-methylisoindolin-5-yl)methyl)sulfonyl)phenyl)urea], the figures for the EC50 in data set [1] (setting [6]) and in data set [3] (setting [8]) were greater than 30 µM and 0.0191 µM, respectively. Moreover, the IC50 in data set [2] (setting [7]) stood at 0.0242 µM. Besides, the “Metabolic Stability Study M = mouse” value in data set [4] was found to be 106.1 µL/min/mg. Also, the “Metabolic Stability Study H = human” value in data set [5] stood at 169.4 µL/min/mg.

Regarding `C[C@@H](NC(=O)Nc1ccc(S(=O)(=O)Cc2ccc3c(c2)CN(C)C3)cc1)c1ccccc1` [H1300, (R)-1-(4-(((2-methylisoindolin-5-yl)methyl)sulfonyl)phenyl)-3-(1-phenylethyl)urea], in data set [1] (setting [6]), the EC50 was greater than 30 µM. The “Metabolic Stability Study M = mouse” value in data set [4] was 42.1 µL/min/mg. Also, the “Metabolic Stability Study H = human” value in data set [5] came to 124.3 µL/min/mg.

With `CC(NC(=O)Nc1c(F)cc(S(=O)(=O)Cc2ccc3c(c2)CNC3)cc1F)c1ccccc1.O=C(O)C(F)(F)F` (centres unmarked) [H1404, 1-(2,6-difluoro-4-((isoindolin-5-ylmethyl)sulfonyl)phenyl)-3-(1-phenylethyl)urea], in data set [1] (setting [6]), the EC50 is greater than 30 µM. In addition, the IC50 in data set [2] (setting [7]) was 1.62 µM. Besides, the “Metabolic Stability Study M = mouse” value in data set [4] amounted to 19 µL/min/mg. Further, in data set [5], the “Metabolic Stability Study H = human” value was 10 µL/min/mg.

Take `COc1cc(S(=O)(=O)Cc2ccc3c(c2)CCNC3)ccc1NC(=O)N[C@H](C)c1cccc(Cl)c1Cl` [H1481, (R)-1-(1-(2,3-dichlorophenyl)ethyl)-3-(2-methoxy-4-(((1,2,3,4-tetrahydroisoquinolin-6-yl)methyl)sulfonyl)phenyl)urea]: the EC50 is greater than 30 µM in data set [1] (ghrelin agonist potency, read-out: Activity EC50/EMax) and 0.0002 µM in data set [3] (ghrelin inverse agonist potency, read-out: Activity EC50). In addition, the “Metabolic Stability Study M = mouse” value in data set [4] amounted to 13.2 µL/min/mg. Moreover, in data set [5], the “Metabolic Stability Study H = human” value is less than 10 µL/min/mg.

`CCC(NC(=O)Nc1ccc(S(=O)(=O)Cc2ccc3c(c2)CN(C)C3)cc1)c1ccccc1` (centres unmarked) [H1235, 1-(4-(((2-methylisoindolin-5-yl)methyl)sulfonyl)phenyl)-3-(1-phenylpropyl)urea]: the IC50 in data set [2] (setting [9]) is 0.032 µM. For the same molecule, in data set [3] (setting [10]), the EC50 is 0.0061 µM. The “Metabolic Stability Study M = mouse” value in data set [4] was found to be 87.1 µL/min/mg. Further, the “Metabolic Stability Study H = human” value in data set [5] was 102.4 µL/min/mg.

`CC(NC(=O)Nc1ccc(S(=O)(=O)Nc2ccc3c(c2)CNC3)cc1)c1ccccc1.Cl` (centres unmarked) [H1156, N-(isoindolin-5-yl)-4-(3-(1-phenylethyl)ureido) benzenesulfonamide]: the IC50 in data set [2] (setting [9]) came to 0.0103 µM. Moreover, in data set [3] (setting [10]), the EC50 is 0.00426 µM. Further, the “Metabolic Stability Study M = mouse” value in data set [4] was 12.9 µL/min/mg. The “Metabolic Stability Study H = human” value in data set [5] stood at 18.1 µL/min/mg.

`C[C@@H](NC(=O)Nc1ccc(S(=O)(=O)Cc2ccc3c(c2)CN(C)C3)cc1)c1ccccc1` [H1356, (R)-1-(4-(((2-methylisoindolin-5-yl)methyl)sulfonyl)phenyl)-3-(1-phenylethyl)urea]: in data set [1] (setting [6]), the EC50 is greater than 30 µM. Also, the “Metabolic Stability Study M = mouse” value in data set [4] was determined as 126 µL/min/mg. Further, in data set [5], the “Metabolic Stability Study H = human” value turned out to be 382.5 µL/min/mg.

Take `Cc1oc(=O)oc1CN1CCc2cc(CS(=O)(=O)c3ccc(NC(=O)N[C@@H](C)c4cccc(Cl)c4Cl)cc3)ccc2C1` [H1067, (S)-1-(1-(2,3-dichlorophenyl)ethyl)-3-(4-(((2-((5-methyl-2-oxo-1,3-dioxol-4-yl)methyl)-1,2,3,4-tetrahydroisoquinolin-6-yl)methyl)sulfonyl)phenyl)urea]: in data set [2] (setting [9]), the IC50 was found to be 0.014 µM. In data set [3] (setting [10]), the EC50 came out at 0.0045 µM. In data set [4], the “Metabolic Stability Study M = mouse” value turned out to be 289 µL/min/mg. For the same molecule, the “Metabolic Stability Study H = human” value in data set [5] came out at 326.2 µL/min/mg.

As to `CCN1Cc2ccc(CS(=O)(=O)c3ccc(NC(=O)NC(C)c4ccccc4)cc3)cc2C1` (centres unmarked) [H1221, 1-(4-(((2-ethylisoindolin-5-yl)methyl)sulfonyl)phenyl)-3-(1-phenylethyl)urea], in data set [2] (setting [9]), the IC50 is 0.0081 µM. The EC50 in data set [3] (setting [10]) amounted to 0.0387 µM. For the same molecule, the “Metabolic Stability Study M = mouse” value in data set [4] was found to be 107.7 µL/min/mg. Also, in data set [5], the “Metabolic Stability Study H = human” value was 111.2 µL/min/mg.

In the case of `CC(NC(=O)Nc1ccc(S(=O)(=O)Cc2ccc3c(c2)CN(Cc2ccccc2)C3)cc1)c1ccccc1` (centres unmarked) [H1219, 1-(4-(((2-benzylisoindolin-5-yl)methyl)sulfonyl)phenyl)-3-(1-phenylethyl)urea], in data set [2] (setting [9]), the IC50 amounted to 0.00777 µM. Further, in data set [3] (setting [10]), the EC50 came to 0.163 µM. Besides, the “Metabolic Stability Study M = mouse” value in data set [4] is reported as “H > 500 M > 500 R = not reported D = not reported μL/min/mg”. Moreover, in data set [5], the “Metabolic Stability Study H = human” value is given as “H > 500 M > 500 R = not reported D = not reported μL/min/mg”.

Consider `C[C@H](NC(=O)Nc1ccc(S(=O)(=O)Cc2ccc3c(c2)CNC3)cc1)c1cccc(Cl)c1Cl.Cl` [H1056, (S)-1-(1-(2,3-dichlorophenyl)ethyl)-3-(4-((isoindolin-5-ylmethyl)sulfonyl)phenyl)urea], for which the IC50 in data set [2] (setting [9]) worked out at 0.0058 µM. For the same molecule, the EC50 in data set [3] (setting [10]) worked out at 0.0026 µM. Also, the “Metabolic Stability Study M = mouse” value in data set [4] came out at 13.5 µL/min/mg. Besides, the “Metabolic Stability Study H = human” value in data set [5] is 16.4 µL/min/mg.

As for `C[C@H](NC(=O)Nc1ccc(S(=O)(=O)Nc2ccc(CCO)cc2)cc1)c1cccc(Cl)c1Cl` [H1094, (S)-4-(3-(1-(2,3-dichlorophenyl)ethyl)ureido)-N-(4-(2-hydroxyethyl)phenyl) benzenesulfonamide], the IC50 in data set [2] (setting [9]) came out at 0.488 µM. In data set [3] (setting [10]), the EC50 turned out to be 0.118 µM. For the same molecule, the “Metabolic Stability Study M = mouse” value in data set [4] was 100.8 µL/min/mg. The “Metabolic Stability Study H = human” value in data set [5] came out at 55.1 µL/min/mg.

On to `C[C@H](NC(=O)Nc1ccc(S(=O)(=O)Nc2ccc(CC(C)(C)O)cc2)cc1)c1cccc(Cl)c1Cl` [H1076, (S)-4-(3-(1-(2,3-dichlorophenyl)ethyl)ureido)-N-(4-(2-hydroxy-2-methylpropyl)phenyl) benzenesulfonamide], for which the IC50 in data set [2] (setting [9]) came to 0.515 µM. The EC50 in data set [3] (setting [10]) amounted to 0.0577 µM. Moreover, the “Metabolic Stability Study M = mouse” value in data set [4] was determined as 73.9 µL/min/mg. In addition, the “Metabolic Stability Study H = human” value in data set [5] was 91.4 µL/min/mg.

(Values after US10501479B2, “Benzenesulfonyl-asymmetric ureas and medical uses thereof” (HELSINN HEALTHCARE SA, priority 2016, dated 2019).)
